In US20100298141A1, “SUBSTITUTED PYRIDINE N-OXIDE HERBICIDES” (E. I. DU PONT DE NEMOURS AND COMPANY, priority 2007, published 2010):

How the values were obtained:
winter barley = assay: Test D preemergence test; format: in vivo, Hordeum vulgare
How it was run: (§1)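 Seeds planted and treated preemergence with test chemicals formulated in a non-phytotoxic solvent mixture containing surfactant. A dash means no test result.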

fall panicum = assay: Test G preemergence test; format: in vivo, Panicum dichotomiflorum; conditions: scale 0 to 100
millet foxtail = assay: Test G preemergence test; format: in vivo, Setaria italica; conditions: scale 0 to 100
goosegrass = assay: Test G preemergence test; format: in vivo, Eleusine indica; conditions: scale 0 to 100
eastern black nightshade = assay: Test G preemergence test; format: in vivo, Solanum ptycanthum; conditions: scale 0 to 100
barnyardgrass = assay: Test B flooded paddy test; format: in vivo, Echinochloa crus-galli; conditions: Flood, 250 g ai/ha, 13 to 15 days; scale 0 to 100, 0 no effect, 100 complete control
Text: (§2) At time of treatment, test pots were flooded to 3 cm above the soil surface, treated by application of test compounds directly to the paddy water, and then maintained at that water depth for the duration of the test. Treated plants and controls were maintained in a greenhouse for 13 to 15 days, after which time all species were compared to controls and visually evaluated. […] A dash (-) response means no test result.

lambsquarters = assay: Test G preemergence test; format: in vivo, Chenopodium album; conditions: scale 0 to 100
broadleaf signalgrass = assay: Test G preemergence test; format: in vivo, Brachiaria platyphylla; conditions: scale 0 to 100
winter wheat = assay: Test D preemergence test; format: in vivo, Triticum aestivum; conditions: scale 0 to 100
How it was run: as §1

spring wheat = assay: Test D preemergence test; format: in vivo, Triticum aestivum; conditions: scale 0 to 100
How it was run: as §1

umbrella sedge = assay: Test B flooded paddy test; format: in vivo, Cyperus difformis; conditions: Flood, 250 g ai/ha, 13 to 15 days; scale 0 to 100, 0 no effect, 100 complete control
Text: as §2

large crabgrass = assay: Test G preemergence test; format: in vivo, Digitaria sanguinalis; conditions: scale 0 to 100
duck salad = assay: Test B flooded paddy test; format: in vivo, Heteranthera limosa; conditions: Flood, 250 g ai/ha, 13 to 15 days; scale 0 to 100, 0 no effect, 100 complete control
Text: as §2

windgrass = assay: Test D preemergence test; format: in vivo, Apera spica-venti; conditions: scale 0 to 100
How it was run: as §1

rice = assay: Test B flooded paddy test; format: in vivo, Oryza sativa; conditions: Flood, 250 g ai/ha, 13 to 15 days; scale 0 to 100, 0 no effect, 100 complete control
Text: as §2

woolly cupgrass = assay: Test G preemergence test; format: in vivo, Eriochloa villosa; conditions: scale 0 to 100
sorghum = assay: Test G preemergence test; format: in vivo, Sorghum vulgare; conditions: scale 0 to 100
downy bromegrass = assay: Test D preemergence test; format: in vivo, Bromus tectorum; conditions: scale 0 to 100
How it was run: as §1

field violet = assay: Test D preemergence test; format: in vivo, Viola arvensis; conditions: scale 0 to 100
How it was run: as §1

blackgrass = assay: Test D preemergence test; format: in vivo, Alopecurus myosuroides; conditions: scale 0 to 100
How it was run: as §1

yellow foxtail = assay: Test G preemergence test; format: in vivo, Pennisetum glaucum; conditions: scale 0 to 100
tall waterhemp = assay: Test G preemergence test; format: in vivo, Amaranthus tuberculatos; conditions: scale 0 to 100
yellow nutsedge = assay: Test G preemergence test; format: in vivo, Cyperus esculentus; conditions: scale 0 to 100
littleseed canarygrass = assay: Test D preemergence test; format: in vivo, Phalaris minor; conditions: scale 0 to 100
How it was run: as §1

green foxtail = assay: Test D preemergence test; format: in vivo, Setaria viridis; conditions: scale 0 to 100
How it was run: as §1

itchgrass = assay: Test G preemergence test; format: in vivo, Rottboellia cochinchinensis; conditions: scale 0 to 100

Structure (SMILES): Cc1cc[n+]([O-])c([S+]([O-])Cc2c(C(F)(F)F)nn(C)c2OC(F)F)c1 (centres unmarked) [Compound 1]
- Plant response rating, Barley (winter barley; Preemergence, 62 g ai/ha, scale 0 to 100): 0
- Plant response rating, Barley (winter barley; Preemergence, 125 g ai/ha, scale 0 to 100): 40
- Plant response rating, Barley (winter barley; Preemergence, 31 g ai/ha, scale 0 to 100): 0
- Plant response rating, Barley (winter barley; preemergence, 250 g ai/ha, scale 0 (no effect) to 100 (complete control)): 50
- Plant response rating, Fall Panicum (fall panicum; 31 g ai/ha): 0
- Plant response rating, Fall Panicum (fall panicum; 62 g ai/ha): 10
- Plant response rating, Fall Panicum (fall panicum; 125 g ai/ha): 30
- Plant response rating, Fall Panicum (fall panicum; 250 g ai/ha): 100
- Plant response rating, Foxtail, Millet (millet foxtail; 31 g ai/ha): 0
- Plant response rating, Foxtail, Millet (millet foxtail; 62 g ai/ha): 100
- Plant response rating, Foxtail, Millet (millet foxtail; 125 g ai/ha): 100
- Plant response rating, Foxtail, Millet (millet foxtail; 250 g ai/ha): 100
- Plant response rating, Goosegrass (goosegrass; 31 g ai/ha): 70
- Plant response rating, Goosegrass (goosegrass; 62 g ai/ha): 90
- Plant response rating, Goosegrass (goosegrass; 125 g ai/ha): 100
- Plant response rating, Goosegrass (goosegrass; 250 g ai/ha): 100
- Plant response rating, Nightshade (eastern black nightshade; 31 g ai/ha): 0
- Plant response rating, Nightshade (eastern black nightshade; 62 g ai/ha): 30
- Plant response rating, Nightshade (eastern black nightshade; 125 g ai/ha): 100
- Plant response rating, Nightshade (eastern black nightshade; 250 g ai/ha): 100
- Plant response rating, Barnyardgrass (barnyardgrass): 80
- Plant response rating, Lambsquarters (lambsquarters; 31 g ai/ha): 0
- Plant response rating, Lambsquarters (lambsquarters; 62 g ai/ha): 100
- Plant response rating, Lambsquarters (lambsquarters; 125 g ai/ha): 100
- Plant response rating, Lambsquarters (lambsquarters; 250 g ai/ha): 100
- Plant response rating, Signalgrass (broadleaf signalgrass; 31 g ai/ha): 20
- Plant response rating, Signalgrass (broadleaf signalgrass; 62 g ai/ha): 70
- Plant response rating, Signalgrass (broadleaf signalgrass; 125 g ai/ha): 70
- Plant response rating, Signalgrass (broadleaf signalgrass; 250 g ai/ha): 100
- Plant response rating, Wheat, Winter (winter wheat; 31 g ai/ha): 0
- Plant response rating, Wheat, Winter (winter wheat; 62 g ai/ha): 5
- Plant response rating, Wheat, Winter (winter wheat; 125 g ai/ha): 50
- Plant response rating, Wheat, Winter (winter wheat; 250 g ai/ha): 60
- Plant response rating, Wheat, Spring (spring wheat; 31 g ai/ha): 0
- Plant response rating, Wheat, Spring (spring wheat; 62 g ai/ha): 0
- Plant response rating, Wheat, Spring (spring wheat; 125 g ai/ha): 30
- Plant response rating, Wheat, Spring (spring wheat; 250 g ai/ha): 45
- Plant response rating, Umbrella Sedge (umbrella sedge): 100
- Plant response rating, Crabgrass, Large (large crabgrass; 31 g ai/ha): 10
- Plant response rating, Crabgrass, Large (large crabgrass; 62 g ai/ha): 100
- Plant response rating, Crabgrass, Large (large crabgrass; 125 g ai/ha): 100
- Plant response rating, Crabgrass, Large (large crabgrass; 250 g ai/ha): 100
- Plant response rating, Ducksalad (duck salad): 90
- Plant response rating, Windgrass (windgrass; 31 g ai/ha): 10
- Plant response rating, Windgrass (windgrass; 62 g ai/ha): 70
- Plant response rating, Windgrass (windgrass; 125 g ai/ha): 100
- Plant response rating, Windgrass (windgrass; 250 g ai/ha): 100
- Plant response rating, Rice, Transplanted (rice): 80
- Plant response rating, Cupgrass, Woolly (woolly cupgrass; 31 g ai/ha): 30
- Plant response rating, Cupgrass, Woolly (woolly cupgrass; 62 g ai/ha): 70
- Plant response rating, Cupgrass, Woolly (woolly cupgrass; 125 g ai/ha): 50
- Plant response rating, Cupgrass, Woolly (woolly cupgrass; 250 g ai/ha): 100
- Plant response rating, Sorghum (sorghum; 31 g ai/ha): 0
- Plant response rating, Sorghum (sorghum; 62 g ai/ha): 0
- Plant response rating, Sorghum (sorghum; 125 g ai/ha): 40
- Plant response rating, Sorghum (sorghum; 250 g ai/ha): 50
- Plant response rating, Bromegrass, Downy (downy bromegrass; 31 g ai/ha): 0
- Plant response rating, Bromegrass, Downy (downy bromegrass; 62 g ai/ha): 30
- Plant response rating, Bromegrass, Downy (downy bromegrass; 125 g ai/ha): 40
- Plant response rating, Bromegrass, Downy (downy bromegrass; 250 g ai/ha): 40
- Plant response rating, Field Violet (field violet; 31 g ai/ha): 20
- Plant response rating, Field Violet (field violet; 62 g ai/ha): 20
- Plant response rating, Field Violet (field violet; 125 g ai/ha): 20
- Plant response rating, Field Violet (field violet; 250 g ai/ha): 75
- Plant response rating, Blackgrass (blackgrass; 31 g ai/ha): 5
- Plant response rating, Blackgrass (blackgrass; 62 g ai/ha): 60
- Plant response rating, Blackgrass (blackgrass; 125 g ai/ha): 70
- Plant response rating, Blackgrass (blackgrass; 250 g ai/ha): 100
- Plant response rating, Foxtail, Yellow (yellow foxtail; 31 g ai/ha): 20
- Plant response rating, Foxtail, Yellow (yellow foxtail; 62 g ai/ha): 100
- Plant response rating, Foxtail, Yellow (yellow foxtail; 125 g ai/ha): 100
- Plant response rating, Foxtail, Yellow (yellow foxtail; 250 g ai/ha): 100
- Plant response rating, Waterhemp (tall waterhemp; 31 g ai/ha): 40
- Plant response rating, Waterhemp (tall waterhemp; 62 g ai/ha): 100
- Plant response rating, Waterhemp (tall waterhemp; 125 g ai/ha): 100
- Plant response rating, Waterhemp (tall waterhemp; 250 g ai/ha): 100
- Plant response rating, Nutsedge, Yellow (yellow nutsedge; 31 g ai/ha): 0
- Plant response rating, Nutsedge, Yellow (yellow nutsedge; 62 g ai/ha): 35
- Plant response rating, Nutsedge, Yellow (yellow nutsedge; 125 g ai/ha): 75
- Plant response rating, Nutsedge, Yellow (yellow nutsedge; 250 g ai/ha): 40
- Plant response rating, Canarygrass (littleseed canarygrass; 31 g ai/ha): 0
- Plant response rating, Canarygrass (littleseed canarygrass; 62 g ai/ha): 100
- Plant response rating, Canarygrass (littleseed canarygrass; 125 g ai/ha): 80
- Plant response rating, Canarygrass (littleseed canarygrass; 250 g ai/ha): 100
- Plant response rating, Foxtail, Green (green foxtail; 31 g ai/ha): 0
- Plant response rating, Foxtail, Green (green foxtail; 62 g ai/ha): 95
- Plant response rating, Foxtail, Green (green foxtail; 125 g ai/ha): 100
- Plant response rating, Foxtail, Green (green foxtail; 250 g ai/ha): 100
- Plant response rating, Itchgrass (itchgrass; 31 g ai/ha): 20
- Plant response rating, Itchgrass (itchgrass; 62 g ai/ha): 35
- Plant response rating, Itchgrass (itchgrass; 125 g ai/ha): 40
- Plant response rating, Itchgrass (itchgrass; 250 g ai/ha): 60
